The values that follow are results of earlier work, collected in patent publication US20240156825A1, “USE OF SELECTIVE VEGFR2 AND FGFR1 INHIBITORS” (Fountain Therapeutics Inc., priority 2022, published 2024).

Read-outs that look alike come from different tables or passages of the source.

The target in one data set is VEGFR2 (Homo sapiens, UniProt P35968). To be noted: reported IC50 to VEGFR2, read-out: VEGFR2 IC50_μM, cited from earlier work.
The next data set deals with any gene target. The following applies: read-out: Min IC50_μM, cited from earlier work.
Where [1] appears, read: Table 3, selective inhibitors of VEGFR2.
The mark [2] stands for this setting: next lowest IC50 value to any gene target, Table 3.
Setting [3] is: next lowest IC50 value to any gene target.
[4] abbreviates: Table 2, lowest reported IC50 to any gene target.

Sequence of VEGFR2 (P35968 20-1356, species assumed): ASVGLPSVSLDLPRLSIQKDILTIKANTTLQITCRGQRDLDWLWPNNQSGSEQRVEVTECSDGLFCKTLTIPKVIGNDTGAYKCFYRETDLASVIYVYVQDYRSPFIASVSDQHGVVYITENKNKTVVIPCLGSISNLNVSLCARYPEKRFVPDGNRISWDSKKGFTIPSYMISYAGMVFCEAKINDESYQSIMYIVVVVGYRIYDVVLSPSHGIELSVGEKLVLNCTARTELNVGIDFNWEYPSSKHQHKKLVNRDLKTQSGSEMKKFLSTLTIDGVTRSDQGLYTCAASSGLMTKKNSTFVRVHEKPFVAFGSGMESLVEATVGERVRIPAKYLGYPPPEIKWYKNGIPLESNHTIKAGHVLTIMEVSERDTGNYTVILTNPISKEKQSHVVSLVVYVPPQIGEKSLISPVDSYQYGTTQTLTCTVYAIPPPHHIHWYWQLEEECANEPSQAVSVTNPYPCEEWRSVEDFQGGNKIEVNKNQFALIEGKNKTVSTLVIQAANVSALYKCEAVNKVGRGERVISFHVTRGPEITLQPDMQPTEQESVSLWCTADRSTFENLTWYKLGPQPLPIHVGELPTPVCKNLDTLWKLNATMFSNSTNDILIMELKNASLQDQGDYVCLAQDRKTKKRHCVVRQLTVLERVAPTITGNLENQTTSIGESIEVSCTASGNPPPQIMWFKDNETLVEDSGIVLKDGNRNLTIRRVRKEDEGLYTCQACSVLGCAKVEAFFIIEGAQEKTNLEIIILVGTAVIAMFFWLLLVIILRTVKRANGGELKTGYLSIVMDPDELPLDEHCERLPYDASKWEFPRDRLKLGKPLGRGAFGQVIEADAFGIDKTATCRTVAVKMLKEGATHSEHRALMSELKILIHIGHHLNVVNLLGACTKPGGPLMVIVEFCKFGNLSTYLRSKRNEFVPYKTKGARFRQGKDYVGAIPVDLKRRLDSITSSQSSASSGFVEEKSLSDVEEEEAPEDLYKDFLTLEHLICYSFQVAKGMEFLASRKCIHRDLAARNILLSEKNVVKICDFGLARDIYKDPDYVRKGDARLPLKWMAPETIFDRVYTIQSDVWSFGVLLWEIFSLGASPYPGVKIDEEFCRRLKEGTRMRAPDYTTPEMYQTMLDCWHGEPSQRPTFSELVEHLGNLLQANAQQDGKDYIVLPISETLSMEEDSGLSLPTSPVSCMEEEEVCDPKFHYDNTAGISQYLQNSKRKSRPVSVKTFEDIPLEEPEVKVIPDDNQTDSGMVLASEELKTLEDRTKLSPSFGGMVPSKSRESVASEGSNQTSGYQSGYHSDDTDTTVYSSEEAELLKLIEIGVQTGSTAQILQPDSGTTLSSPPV

For `COc1cc2c(Nc3cc(Cl)c(Br)cc3F)ncnc2cc1OCC1COCCN1C` (centres unmarked) [compound 134154844], the IC50 on VEGFR2 (setting [1]) and in the data set on any gene target (setting [2]) was 50 nM throughout. Regarding `O=C(CCCCCCNCc1cc(Oc2ccc(NC(=O)Nc3ccc(Cl)c(C(F)(F)F)c3)cc2)ccn1)NO` [compound 25072217], the IC50 on VEGFR2 and with any gene target (setting [3]) was 100 nM throughout. `C[C@@H](Nc1ncnc2[nH]c(-c3ccc(CNCc4ccc(C(=O)NO)cc4)cc3)cc12)c1ccccc1` [compound 59756709]: the IC50 at VEGFR2 (setting [1]) and in the data set on any gene target (setting [2]) was 100 nM throughout. With `COc1cc2c(Nc3cc(Cl)c(Cl)c(Cl)c3)ncnc2cc1OCC1CN(C)CCO1` (centres unmarked) [compound 57802593], the IC50 at VEGFR2 (setting [1]) and in the data set with any gene target (setting [2]) was 50 nM in each case. Turning to `COc1cc2c(Nc3ccc(Cl)c(Cl)c3)ncnc2cc1OCc1nc(N2CCN(C)CC2)no1` [compound 57802605], the IC50 at VEGFR2 (setting [1]) and in the data set with any gene target (setting [2]) was 50 nM throughout. Turning to `COc1cc2c(Nc3ccc(Cl)c(Cl)c3F)ncnc2cc1OC[C@@H]1CN2CCC[C@@H]2C(=O)N1` [compound 53630924], the IC50 on VEGFR2 (setting [1]) and in the data set with any gene target (setting [2]) was 50 nM each time. `COc1cc2c(Nc3ccc(Br)c(Cl)c3C)ncnc2cc1OCC1CN(C)CCO1` (centres unmarked) [compound 57802867]: the IC50 at VEGFR2 (setting [1]) and in the data set on any gene target (setting [2]) was 50 nM in each case. With `CS(=O)(=O)Cc1cccc(Nc2nccc(Oc3ccc4c(C(=O)Nc5cccnc5)cccc4c3)n2)c1` [compound 127037812], the IC50 at VEGFR2 is 0.5 nM; with any gene target (setting [3]), 4.9 nM. As to `CCN=C(NC#N)N1CCOC(COc2cc3ncnc(Nc4ccc(Cl)c(Cl)c4)c3cc2OC)C1` (centres unmarked) [compound 57802565], the IC50 at VEGFR2 (setting [1]) and in the data set with any gene target (setting [2]) was 50 nM throughout.

As to `COc1cc2c(Nc3ccc(Cl)c(Cl)c3F)ncnc2cc1OC[C@H]1CN2CCOC[C@H]2CO1` [compound 10029284], the IC50 on VEGFR2 (setting [1]) and in the data set on any gene target (setting [2]) was 50 nM each time. Take `COc1cc2c(Oc3ccc(Nc4ccc(C(C)(C)C)cc4)cc3)ccnc2cc1OCCNCCO` [compound 9850161]: the IC50 at VEGFR2 (setting [1]) and in the data set on any gene target (setting [2]) was 69 nM in each case. Take `COc1cc2c(Nc3c(F)cc(Br)cc3F)ncnc2cc1OCC1CCN(C)CC1` [compound 5329046]: the IC50 is 10 nM on VEGFR2 and 100 nM with any gene target (setting [3]). In the case of `COc1cc2c(Nc3ccc(Cl)c(Cl)c3F)ncnc2cc1OC[C@@H]1CN2CCC[C@H]2C(=O)N1C` [compound 53630920], the IC50 at VEGFR2 (setting [1]) and in the data set with any gene target (setting [2]) was 50 nM each time. For `c1ccc2sc(-c3ccc(Nc4ncnc5[nH]ccc45)cc3)nc2c1` [compound 44564789], the IC50 was 1200 nM on VEGFR2 and 1300 nM in the data set on any gene target (setting [3]). For `COc1cc2c(Nc3ccc(Br)cc3F)ncnc2cc1OCCn1ccnn1` [compound 5329032], at VEGFR2, the IC50 was 30 nM. For the compound `COc1cc(OC)c(C)c(N(CCCN2CCCC2)c2ccc3ncc(-c4cnn(C)c4)nc3c2)c1` [compound 134145340], the IC50 in the data set on any gene target (setting [4]) was 3.55 nM.

Take `O=C(Nc1cccc(C(F)(F)F)c1)c1ccccc1NCc1ccncc1` [compound 6398883]: the IC50 with any gene target (setting [3]) was 18 nM. For the compound `COc1cc(OC)cc(N(CCN2CCCCC2)c2ccc3ncc(-c4cnn(C)c4)nc3c2)c1` [compound 68209029], in the data set on any gene target (setting [4]), the IC50 is 2.24 nM. With `CCN(CC)CCN(c1cc(OC)cc(OC)c1)c1ccc2ncc(-c3cnn(C)c3)nc2c1` [compound 68208850], in the data set with any gene target (setting [4]), the IC50 was 3.02 nM. For `CC(C)n1nc(-c2ccc3cc(O)ccc3c2)c2c(N)ncnc21` [compound 135947979], the IC50 in the data set with any gene target (setting [3]) is 20 nM. For `COc1ccc2c(Oc3ccc4c(C(N)=O)cccc4c3)ccnc2c1` [compound 24823095], the IC50 with any gene target (setting [3]) was 130 nM. Regarding `CNC(=O)c1ccccc1Sc1ccc2c(/C=C/c3ccccn3)n[nH]c2c1` [compound 6450551], in the data set with any gene target (setting [2]), the IC50 was 0.1 nM.

Regarding `CNC(=O)c1cc(Oc2ccc(NC(=O)Nc3ccc(Cl)c(C(F)(F)F)c3)cc2)ccn1` [compound 216239], in the data set with any gene target (setting [3]), the IC50 was 0.2 nM. With `COc1cc(OC)cc(N(CC#Cc2cccc(N)n2)c2ccc3ncc(-c4cnn(C)c4)nc3c2)c1` [compound 67466417], the IC50 with any gene target (setting [4]) is 42.7 nM.
